Data taken from patent US20150164762A1, “USE OF ETHANOLAMINE PHOSPHATE” (priority 2012, published 2015).

Test system: BEAS-2B
Test: Comprehensive gene expression analysis with Whole Human Genome DNA microarray after EP treatment
Assay type: cell-based
Description: Cells of the established normal human airway epithelial cell line BEAS-2B were used in the experiment. These cells were expansively cultured in 10% FBS RPMI-1640, and seeded at a density of 1×10^5/cm^2 on a 24-well plate. After 24 hours 0.1% FBS RPMI-1640 was substituted, and EP was administered to a final concentration of 0 or 1 mM (n=4). After 24 hours, the cells were used as the DNA microarray samples. RNA was extracted using a QIAGEN RNeasy Mini Kit. The DNA microarray test was performed using a Whole Human Genome DNA microarray 4×44K (Agilent), and the necessary labeling reagents and the like for the DNA microarray test were all from Agilent. The DNA microarray test data were analyzed statistically with GeneSpring (Agilent) dedicated analysis software, and gene function analysis (Gene Ontology (GO) analysis) was performed based on differential expression. The purpose of the GO analysis is to determine stochastically the degree to which gene sets with statistically significant differential expression correspond to known functional classification gene sets. […] The p-value is calculated according to the following formula.

[1] = probe A_23_P149529, 1 mM EP, 24 h
[2] = probe A_23_P151294, NM_000619, EP vs control
[3] = probe A_23_P151294, 1 mM EP, 24 h
[4] = probe A_23_P151649, NM_080649, EP vs control
[5] = probe A_23_P156310, 1 mM EP, 24 h
[6] = probe A_23_P159210, 1 mM EP, 24 h
[7] = probe A_23_P160025, 1 mM EP, 24 h
[8] = probe A_23_P163787, 1 mM EP, 24 h
[9] = probe A_23_P167096, 1 mM EP, 24 h
[10] = probe A_23_P167585, NM_005260, EP vs control
[11] = probe A_23_P168882, 1 mM EP, 24 h
[12] = probe A_23_P168909, 1 mM EP, 24 h
[13] = probe A_23_P169030, 1 mM EP, 24 h
[14] = probe A_23_P169738, 1 mM EP, 24 h
[15] = probe A_23_P201808, 1 mM EP, 24 h
[16] = probe A_23_P202978, 1 mM EP, 24 h
[17] = probe A_23_P206077, 1 mM EP, 24 h
[18] = probe A_23_P206396, 1 mM EP, 24 h
[19] = probe A_23_P206661, NM_000903, EP vs control
[20] = probe A_23_P207003, 1 mM EP, 24 h
[21] = probe A_23_P207999, 1 mM EP, 24 h
[22] = probe A_23_P208706, 1 mM EP, 24 h
[23] = probe A_23_P209625, NM_000104, EP vs control
[24] = probe A_23_P211762, 1 mM EP, 24 h
[25] = probe A_23_P211957, 1 mM EP, 24 h
[26] = probe A_23_P213706, NM_000589, EP vs control
[27] = probe A_23_P213745, NM_004887, EP vs control
[28] = probe A_23_P214950, 1 mM EP, 24 h
[29] = probe A_23_P217866, 1 mM EP, 24 h
[30] = probe A_23_P250554, 1 mM EP, 24 h
[31] = probe A_23_P252817, 1 mM EP, 24 h
[32] = probe A_23_P253932, 1 mM EP, 24 h
[33] = probe A_23_P255653, 1 mM EP, 24 h
[34] = probe A_23_P258194, 1 mM EP, 24 h
[35] = probe A_23_P258310, NM_144651, EP vs control
[36] = probe A_23_P259071, NM_001657, EP vs control
[37] = probe A_23_P303210, 1 mM EP, 24 h

NCCOP(=O)(O)O [EP, Ethanolamine phosphate]
TACSTD2 expression R*: Ratio to control [1]: 1.507 times | TACSTD2 expression log2 [ratio] [1]: 0.591 | IFNG gene expression, R* ratio to control [2]: 0.611 times | IFNG gene expression, log2 [ratio] [2]: −0.710 | IFNG expression R*: Ratio to control [3]: 0.611 times | IFNG expression log2 [ratio] [3]: −0.710 | APEX1 gene expression, R* ratio to control [4]: 1.455 times | APEX1 gene expression, log2 [ratio] [4]: 0.541 | SKP2 expression R*: Ratio to control [5]: 1.531 times | SKP2 expression log2 [ratio] [5]: 0.615 | CDKN1A expression R*: Ratio to control [6]: 0.439 times | CDKN1A expression log2 [ratio] [6]: −1.187 | IFI16 expression R*: Ratio to control [7]: 0.629 times | IFI16 expression log2 [ratio] [7]: −0.669 | MMP2 expression R*: Ratio to control [8]: 1.578 times | MMP2 expression log2 [ratio] [8]: 0.658 | VEGFC expression R*: Ratio to control [9]: 1.637 times | VEGFC expression log2 [ratio] [9]: 0.711 | GDF9 gene expression, R* ratio to control [10]: 0.357 times | GDF9 gene expression, log2 [ratio] [10]: -1.49 | TP53INP1 expression R*: Ratio to control [11]: 0.395 times | TP53INP1 expression log2 [ratio] [11]: −1.339 | ZFPM2 expression R*: Ratio to control [12]: 1.678 times | ZFPM2 expression log2 [ratio] [12]: 0.746 | TNFRSF10B expression R*: Ratio to control [13]: 0.636 times | TNFRSF10B expression log2 [ratio] [13]: −0.653 | SOX7 expression R: Ratio to control [14]: 0.362 times | SOX7 expression log2 [ratio] [14]: −1.464 | PPAP2B expression R*: Ratio to control [15]: 1.919 times | PPAP2B expression log2 [ratio] [15]: 0.941 | CASP1 expression R*: Ratio to control [16]: 0.641 times | CASP1 expression log2 [ratio] [16]: −0.642 | AEN expression R*: Ratio to control [17]: 0.420 times | AEN expression log2 [ratio] [17]: −1.253 | CKLF expression R*: Ratio to control [18]: 1.601 times | CKLF expression log2 [ratio] [18]: 0.679 | NQO1 gene expression, R* ratio to control [19]: 1.480 times | NQO1 gene expression, log2 [ratio] [19]: 0.566 | SEPT4 expression R*: Ratio to control [20]: 0.503 times | SEPT4 expression log2 [ratio] [20]: −0.990 | PMAIP1 expression R: Ratio to control [21]: 0.344 times | PMAIP1 expression log2 [ratio] [21]: −1.540 | BAX expression R*: Ratio to control [22]: 0.453 times | BAX expression log2 [ratio] [22]: −1.143 | CYP1B1 gene expression, R* ratio to control [23]: 1.584 times | CYP1B1 gene expression, log2 [ratio] [23]: 0.663 | COL8A1 expression R*: Ratio to control [24]: 1.643 times | COL8A1 expression log2 [ratio] [24]: 0.716 | TGFBR2 expression R*: Ratio to control [25]: 1.634 times | TGFBR2 expression log2 [ratio] [25]: 0.708 | IL4 gene expression, R* ratio to control [26]: 0.420 times | IL4 gene expression, log2 [ratio] [26]: −1.251 | CXCL14 gene expression, R* ratio to control [27]: 0.364 times | CXCL14 gene expression, log2 [ratio] [27]: −1.456 | PERP expression R: Ratio to control [28]: 0.521 times | PERP expression log2 [ratio] [28]: −0.941 | 1FI16 expression R*: Ratio to control [29]: 0.585 times | 1FI16 expression log2 [ratio] [29]: −0.773 | AGGF1 expression R*: Ratio to control [30]: 1.523 times | AGGF1 expression log2 [ratio] [30]: 0.607 | SST expression R: Ratio to control [31]: 0.666 times | SST expression log2 [ratio] [31]: −0.587 | FAIM expression R*: Ratio to control [32]: 1.670 times | FAIM expression log2 [ratio] [32]: 0.740 | TNFRSF10A expression R*: Ratio to control [33]: 0.402 times | TNFRSF10A expression log2 [ratio] [33]: −1.314 | A1FM3 expression R*: Ratio to control [34]: 0.580 times | A1FM3 expression log2 [ratio] [34]: −0.761 | PXDNL gene expression, R* ratio to control [35]: 2.426 times | PXDNL gene expression, log2 [ratio] [35]: 1.278 | AREG gene expression, R* ratio to control [36]: 0.128 times | AREG gene expression, log2 [ratio] [36]: −2.969 | IKBIP expression R*: Ratio to control [37]: 0.468 times | IKBIP expression log2 [ratio] [37]: −1.095
